In patent US20130164387A9, “NOVEL MANNOPYRANOSIDE DERIVATIVES WITH ANTICANCER ACTIVITY” (Centre National De La Recherche Scientifique, priority 2009, published 2013):

Tested on: B16 melanoma
Test: Tumor growth and survival of mice which have a B16 melanoma
Type: in vivo, mouse
Settings: for inhibition of tumor growth: mice with subcutaneous B16 melanoma, dose of 300 mg/kg
Experimental: A melanoma is induced in a mouse by subcutaneous injection of tumor cells (B16 cells).
The tumor develops within 10 days in the subcutaneous position (ventral face of the thigh). The size of the tumor is measured with a caliper rule and its volume is estimated according to the formula V=L×w×w, in which L represents the length and w represents the width. Various compounds of the invention were administered to mice having received syngenic melanoma cells (B16) at a dose of 300 mg/kg.

Substance | mortality in treated mouse group (after 18 days of treatment, 300 mg/kg, nontreated mouse group 40% mortality) | inhibition of tumor growth
6-(METHYL 6-DEOXY-α-D-MANNOPYRANOSIDE) BORONIC ACID [compound 7f] | no mortality | 65%
METHYL 6-O-HYDROGENOPHOSPHONATE-α-D-MANNO-PYRANOSIDE [compound 4e] |  | 40%
